From US12344610B2, “APOL1 inhibitors and methods of use” (Maze Therapeutics, Inc., priority 2022, dated 2025)

What was measured:
APOL1 G2 = target: T1, APOL1 G2 (Homo sapiens, UniProt O14791, DEL388-389); experiment: APOL1-mediated calcium transport (calcium influx) assay, HEK T-REx/GCaMP6f/APOL1 G2 K6.3 cells, FLIPR TETRA; type: cell-based; settings: prevention of calcium influx; geometric mean of at least 2 assay runs; † = average of a technical replicate from a single assay run
T1 construct: expressed in transfected cells; host or cells: HEK293 T-REx clonal line stably expressing GCaMP6f (HEK T-REx/GCaMP6f/APOL1 G2 K6.3), doxycycline induced
T1 sequence (O14791 with tags, fused parts or gaps DEL388-389): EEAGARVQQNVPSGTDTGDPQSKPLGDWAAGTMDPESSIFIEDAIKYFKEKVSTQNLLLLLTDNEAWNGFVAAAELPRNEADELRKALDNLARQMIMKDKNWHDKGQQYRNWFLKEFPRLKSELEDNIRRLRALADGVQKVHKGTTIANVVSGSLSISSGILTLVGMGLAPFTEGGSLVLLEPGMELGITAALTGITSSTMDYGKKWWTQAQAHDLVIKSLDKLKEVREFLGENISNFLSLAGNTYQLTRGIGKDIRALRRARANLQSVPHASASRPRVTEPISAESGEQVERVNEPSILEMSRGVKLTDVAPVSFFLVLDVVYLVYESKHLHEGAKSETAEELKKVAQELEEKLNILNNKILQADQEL
Outline: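 A HEK293 T-REx clone stably expressing GCaMP6f had APOL1 G2 induced with doxycycline (20 ng/mL solution added) for 6 h. Cells were then washed into Ca2+-free Tyrode's buffer (pH 7.4) and preincubated with compounds (duplicate 8-point) for 10 min at room temperature. Ca2+ injection to 5 mM final produced FLIPR GCaMP fluorescence, giving AC50 for influx inhibition (geometric mean, ≥2 runs).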

[1] = system: HEK293 clonal cell line overexpressing APOL1 G1; experiment: APOL1 G1 HEK293 cell rescue assay (Example B3); type: cell-based; settings: geometric mean of at least 2 runs, † = single run, ¥ = concentration at 50% rescue estimated (no sigmoidal curve)
Outline: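 Rescue of cell death caused by APOL1 G1 overexpression was measured in a clonal HEK293 line. Compounds were tested in duplicate on one plate, and EC50s were geometric means across at least two runs on different days. Some values are estimated 50%-rescue concentrations where curve fitting failed.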

[2] = Homo sapiens, HEK293, HEK293 clonal line overexpressing APOL1 G1
[3] = HEK293 clonal line overexpressing APOL1 G1

Row | Structure (SMILES) | AC50 (APOL1 G2) | EC50 [1, 2] | EC50 [1, 3]
1 | CC(C)N1C(=O)CCc2cc(OCCN3CCC4(CC3)C(=O)Nc3ccc(Cl)cc34)ccc21 [Compound 97, 5-chloro-1′-(2-{[2-oxo-1-(propan-2-yl)-1,2,3,4-tetrahydroquinolin-6-yl]oxy}ethyl)-1,2-dihydrospiro[indole-3,4′-piperidin]-2-one] | 823 nM | 143 nM | 
2 | CS(=O)(=O)C1(c2c(F)cc(OCCN3CCC4(CC3)C(=O)Nc3ccc(C#N)cc34)cc2F)COC1 [Compound 84, 1′-{2-[3,5-difluoro-4-(3-methanesulfonyloxetan-3-yl)phenoxy]ethyl}-2-oxo-1,2-dihydrospiro[indole-3,4′-piperidine]-5-carbonitrile] | 1450 nM | 233 nM | 
3 | CS(=O)(=O)C1(c2ccc(OCCN3CCC4(CC3)C(=O)Nc3ccc(Cl)cc34)cc2)CC(O)C1 (stereo not drawn) [Compound 269, 5-chloro-1′-(2-{4-[(cis) or (trans)-3-hydroxy-1-methanesulfonylcyclobutyl]phenoxy}ethyl)-1,2-dihydrospiro[indole-3,4′-piperidin]-2-one] |  |  | 325 nM
4 | O=C1Nc2ccc(Cl)cc2C12CCN(CCOc1ccc3c(cnn3[C@H]3C[C@H](O)C3)c1)CC2 [Compound 86, 5-chloro-1′-[2-({1-[(trans)-3-hydroxycyclobutyl]-1H-indazol-5-yl}oxy)ethyl]-1,2-dihydrospiro[indole-3,4′-piperidin]-2-one] | 539 nM | 126 nM | 
5 | CC(C)N1C(=O)CCc2cc(OCCN3CCC4(CC3)C(=O)Nc3ccc(C#N)cc34)ccc21 [Compound 96, 2-oxo-1′-(2-{[2-oxo-1-(propan-2-yl)-1,2,3,4-tetrahydroquinolin-6-yl]oxy}ethyl)-1,2-dihydrospiro[indole-3,4′-piperidine]-5-carbonitrile] | 552 nM | 148 nM | 
6 | CC1(S(=O)(=O)c2ccc(OCCN3CCC4(CC3)C(=O)Nc3ccc(Cl)cc34)cc2)COC1 [Compound 92, 5-chloro-1′-(2-{4-[(3-methyloxetan-3-yl)sulfonyl]phenoxy}ethyl)-1,2-dihydrospiro[indole-3,4′-piperidin]-2-one] | 761 nM | 101 nM | 
7 | Cn1c(=O)[nH]c2cc(OCCN3CCC4(CC3)C(=O)Nc3ccc(Cl)cc34)ccc21 [Compound 88, 5-chloro-1′-{2-[(1-methyl-2-oxo-2,3-dihydro-1H-1,3-benzodiazol-5-yl)oxy]ethyl}-1,2-dihydrospiro[indole-3,4′-piperidin]-2-one] | 698 nM | 438 nM | 
8 | CC1(S(=O)(=O)c2ccc(OCCN3CCC4(CC3)C(=O)Nc3ccc(C#N)cc34)cc2)COC1 [Compound 93, 1′-(2-{4-[(3-methyloxetan-3-yl)sulfonyl]phenoxy}ethyl)-2-oxo-1,2-dihydrospiro[indole-3,4′-piperidine]-5-carbonitrile] | 951 nM | 230 nM | 
9 | CS(=O)(=O)N(CCO)c1ccc(OCCN2CCC3(CC2)C(=O)Nc2ccc(Cl)cc23)cc1 [Compound 98, N-[4-(2-{5-chloro-2-oxo-1,2-dihydrospiro[indole-3,4′-piperidin]-1′-yl}ethoxy)phenyl]-N-(2-hydroxyethyl)methanesulfonamide] | 600 nM | 183 nM | 
10 | CS(=O)(=O)c1c(F)cc(OCCN2CCC3(CC2)C(=O)Nc2ccc(Cl)cc23)cc1F [Compound 89, 5-chloro-1′-[2-(3,5-difluoro-4-methanesulfonylphenoxy)ethyl]-1,2-dihydrospiro[indole-3,4′-piperidin]-2-one] | 463 nM | 138 nM | 
11 | C[C@]1(O)C[C@@H](n2c(=O)cnc3cc(OCCN4CCC5(CC4)C(=O)Nc4ccc(Cl)cc45)cnc32)C1 [Compound 358, 5-chloro-1′-[2-({3-oxo-4-[(cis)-3-hydroxy-3-methylcyclobutyl]-3H,4H-pyrido[2,3-b]pyrazin-7-yl}oxy)ethyl]-1,2-dihydrospiro[indole-3,4′-piperidin]-2-one] |  | 111 nM | 
12 | COC(=O)C1(S(=O)(=O)c2ccc(OCCN3CCC4(CC3)C(=O)Nc3ccc(Cl)cc34)cc2)CC1 [Compound 91, methyl 1-[4-(2-{5-chloro-2-oxo-1,2-dihydrospiro[indole-3,4′-piperidin]-1′-yl}ethoxy)benzenesulfonyl]cyclopropane-1-carboxylate] | 739 nM | 99 nM | 
13 | CS(=O)(=O)c1c(F)cc(OCCN2CCC3(CC2)C(=O)Nc2ccc(C#N)cc23)cc1F [Compound 90, 1′-[2-(3,5-difluoro-4-methanesulfonylphenoxy)ethyl]-2-oxo-1,2-dihydrospiro[indole-3,4′-piperidine]-5-carbonitrile] | 973 nM | 594 nM | 
14 | CC(c1ncc(OCCN2CCC3(CC2)C(=O)Nc2ccc(Cl)cc23)cn1)S(C)(=O)=O (single isomer, unassigned) [Compound 3, 5-chloro-1′-[2-({2-[(1R) or (1S)-1-methanesulfonylethyl]pyrimidin-5-yl}oxy)ethyl]-1,2-dihydrospiro[indole-3,4′-piperidin]-2-one] |  |  | 257 nM
15 | O=C1Nc2ccc(Cl)cc2C12CCN(CCOc1ccc3[nH]ncc3c1)CC2 [Compound 87, 5-chloro-1′-[2-(2H-indazol-5-yloxy)ethyl]-1,2-dihydrospiro[indole-3,4′-piperidin]-2-one] | 375 nM | 281 nM | 
16 | CC(O)c1ncc(OCCN2CCC3(CC2)C(=O)Nc2ccc(C#N)cc23)cc1C(F)(F)F (single isomer, unassigned) [Compound 377, 1′-[2-({6-(1S) or (1R)-1-hydroxyethyl]-5-(trifluoromethyl)pyridin-3-yl}oxy)ethyl]-2-oxo-1,2-dihydrospiro[indole-3,4′-piperidine]-5-carbonitrile] |  |  | 172 nM
17 | CS(=O)(=O)C1(c2ncc(OCCN3CCC4(CC3)C(=O)Nc3ccc(OC(F)F)cc34)cn2)CC1 [Compound 6, 5-(difluoromethoxy)-1′-(2-{[2-(1-methanesulfonylcyclopropyl)pyrimidin-5-yl]oxy}ethyl)-1,2-dihydrospiro[indole-3,4′-piperidin]-2-one] |  | 252 nM | 
18 | CS(=O)(=O)C1(c2ncc(OCCN3CCC4(CC3)C(=O)Nc3ccc(C(F)F)cc34)cn2)CC1 [Compound 5, 5-(difluoromethyl)-1′-(2-{[2-(1-methanesulfonylcyclopropyl)pyrimidin-5-yl]oxy}ethyl)-1,2-dihydrospiro[indole-3,4′-piperidin]-2-one] |  | 295 nM | 
19 | O=C1Nc2ccc(Cl)cc2C12CCN(CCOc1ccc3c(cnn3[C@H]3C[C@@H](O)C3)c1)CC2 [Compound 85, 5-chloro-1′-[2-({1-[(cis)-3-hydroxycyclobutyl]-1H-indazol-5-yl}oxy)ethyl]-1,2-dihydrospiro[indole-3,4′-piperidin]-2-one] | 564 nM | 157 nM | 
20 | CC(c1ncc(OCCN2CCC3(CC2)C(=O)Nc2ccc(Cl)cc23)cn1)S(C)(=O)=O (single isomer, unassigned) [Compound 2, 5-chloro-1′-[2-({2-[(1S) or (1R)-1-methanesulfonylethyl]pyrimidin-5-yl}oxy)ethyl]-1,2-dihydrospiro[indole-3,4′-piperidin]-2-one] |  | 346 nM | 
21 | O=C1CCc2cc(OCCN3CCC4(CC3)C(=O)Nc3ccc(Cl)cc34)cnc2N1[C@H]1C[C@H](O)C1 [Compound 267, 5-chloro-1′-[2-({7-oxo-8-[(trans)-3-hydroxycyclobutyl]-5,6,7,8-tetrahydro-1,8-naphthyridin-3-yl}oxy)ethyl]-1,2-dihydrospiro[indole-3,4′-piperidin]-2-one] |  | 137 nM | 
22 | CC1(O)CN(c2ncc(OCCN3CCC4(CC3)C(=O)Nc3ccc(C(F)F)cc34)cn2)C1 [Compound 395, 5-(difluoromethyl)-1′-(2-{[2-(3-hydroxy-3-methylazetidin-1-yl)pyrimidin-5-yl]oxy}ethyl)-1,2-dihydrospiro[indole-3,4′-piperidin]-2-one] |  | 157 nM | 
23 | CC(O)c1ncc(OCCN2CCC3(CC2)C(=O)Nc2ccc(C#N)cc23)cc1C(F)(F)F (single isomer, unassigned) [Compound 376, 1′-[2-({6-[(1S) or (1R)-1-hydroxyethyl]-5-(trifluoromethyl)pyridin-3-yl}oxy)ethyl]-2-oxo-1,2-dihydrospiro[indole-3,4′-piperidine]-5-carbonitrile] |  | 129 nM | 
24 | CS(=O)(=O)C1(c2ccc(OCCN3CCC4(CC3)C(=O)Nc3ccc(Cl)cc34)cc2)CC(O)C1 (stereo not drawn) [Compound 270, 5-chloro-1′-(2-{4-[(trans) or (cis)-3-hydroxy-1-methanesulfonylcyclobutyl]phenoxy}ethyl)-1,2-dihydrospiro[indole-3,4′-piperidin]-2-one] |  |  | 60.7 nM
